# Results taken from patent US20130109703A1, “Combination of a GPR119 Agonist and the DPP-IV Inhibitor Linagliptin for Use in the Treatment of Diabetes and Related Conditions” (Boehringer Ingelheim International GmbH, priority 2010, published 2013).
# Columns and labels:
# [1] = test system: Zucker Diabetic Fatty (ZDF) rats (ZDF/Crl-Lepr^fa); assay: Oral glucose tolerance test in overnight fasted 9-weeks old male ZDF rats; format: in vivo, rat; conditions: 1st Example, FIG. 1; single oral dose 30 min before oral glucose load 2 g/kg; Cpd. A 3 mg/kg, Cpd. B 100 mg/kg, combination at the same doses; versus vehicle
# Procedure: (§1) According to a first example an oral glucose tolerance test is performed in overnight fasted 9-weeks old male Zucker Diabetic Fatty (ZDF) rats (ZDF/Crl-Lepr^fa). A pre-dose blood sample is obtained by tail bleed. Blood glucose is measured with a glucometer, and the animals are randomized for blood glucose (n=5/group). […] The animals receive an oral glucose load (2 g/kg) 30 min after compound administration. Blood glucose is measured in tail blood 15 min, 30 min, 60 min, and 90 min after the glucose challenge. Glucose excursion is quantified by calculating the reactive glucose AUC. The data are presented as mean±SEM. The two-sided unpaired Student t-test is used for statistical comparison of the control group and the active groups as well as between active groups.
# [2] = Excretion route of BI 1356 at therapeutic oral dose levels; format: in vivo
# [3] = test system: Zucker Diabetic Fatty (ZDF) rats (ZDF/Crl-Lepr^fa); assay: Oral glucose tolerance test in overnight fasted 15-weeks old male ZDF rats (highly insulin-resistant model); format: in vivo, rat; conditions: single oral dose 30 min before oral glucose load 2 g/kg, Cpd. A 3 mg/kg, combination at the same doses, versus vehicle
# Procedure: as §1, with “to a second example an” for “to a first example an”, “overnight fasted 15-weeks old male” for “overnight fasted 9-weeks old male”, “rats (ZDF/Crl-Lepr^fa). This aged ZDF rats serve as a highly insulin-resistant animal model. A pre-dose” for “rats (ZDF/Crl-Lepr^fa). A pre-dose”, “tail blood 30 min,” for “tail blood 15 min, 30 min,”, “60 min, 90 min, 120 min, and 180” for “60 min, and 90”, “min, and 180 min after” for “min, and 90 min after”
smiles,measurement,setting,value
"CC#CCn1c(N2CCC[C@@H](N)C2)nc2c1c(=O)n(Cc1nc(C)c3ccccc3n1)c(=O)n2C [Cpd. A, 1-[(4-methyl-quinazolin-2-yl)methyl]-3-methyl-7-(2-butyn-1-yl)-8-(3-(R)-amino-piperidin-1-yl)-xanthine]",reduction of glucose excursion (reactive glucose AUC),[1],49%
same,excretion via the kidney,[2],< 7 % of the administered oral dose
same,reduction of glucose excursion (reactive glucose AUC),"[3]; 2nd Example, FIG. 2, Cpd. B 30 mg/kg",1%
same,reduction of glucose excursion (reactive glucose AUC),"[3]; 3rd Example, FIG. 3, Cpd. B 10 mg/kg",1%
